Like-named read-outs stand apart in the source and are kept apart here.
What was measured:
[1] = target: T1, CFTR-mediated short-circuit current in F508del/MF-HBE cells (Homo sapiens, UniProt P13569, DEL508-508); experiment: HBE assay: Ussing chamber assay of CFTR-mediated short-circuit currents; assay type: cell-based; conditions: 20% human serum; for HBE Activity at 10 μM: single fixed concentration of 10 μM in combination with 1 μM Ivacaftor; for HBE Activity at 10 μM / EC50: 18-24 hours; for HBE Max. activity / EC50: F508del/MF-HBE; for HBE Max. activity: in combination with 1 μM Ivacaftor, compared to known Vertex corrector with 18 μM Tezacaftor and 1 μM Ivacaftor; for EC50: range of concentrations in combination with 1 μM Ivacaftor
T1 construct: endogenous in cells; host or cells: primary human bronchial epithelial cells from CF subjects (F508del/MF)
Experimental: Ussing chamber experiments were performed using human bronchial epithelial (HBE) cells derived from CF subjects heterozygous for F508del and a minimal function CFTR mutation (F508del/MF-HBE) and cultured as previously described (Neuberger T, Burton B, Clark H, Van Goor F Methods Mol Biol 2011:741:39-54). After four days the apical media was removed, and the cells were grown at an air liquid interface for >14 days prior to use.
To isolate the CFTR-mediated short-circuit (ISC) current, F508del/MF-HBE grown on Costar® Snapwell™ cell culture inserts were mounted in an Ussing chamber and the transepithelial ISC was measured under voltage-clamp recording conditions (Vhold=0 mV) at 37° C. The basolateral solution contained (in mM) 145 NaCl, 0.83K2HPO4, 3.3 KH2PO4, 1.2 MgCl2, 1.2 CaCl2), 10 Glucose, 10 HEPES (pH adjusted to 7.4 with NaOH) and the apical solution contained (in mM) 145 NaGluconate, 1.2 MgCl2, 1.2 CaCl2), 10 glucose, 10 HEPES (pH adjusted to 7.4 with NaOH) and 30 μM amiloride to block the epithelial sodium channel. Forskolin (20 μM) was added to the apical surface to activate CFTR, followed by apical addition of a CFTR inhibitor cocktail consisting of BPO, GlyH-101, and CFTR inhibitor 172 (each at 20 μM final assay concentration) to specifically isolate CFTR currents. The CFTR-mediated ISC (μA/cm^2) for each condition was determined from the peak forskolin response to the steady-state current following inhibition.
The activity of the CFTR corrector compounds on the CFTR-mediated ISC was determined in Ussing chamber studies as described above. The F508del/MF-HBE cell cultures were either incubated with the corrector compounds at a range of concentrations in combination with 1 μM Ivacaftor or were incubated with the corrector compounds at a single fixed concentration of 10 μM in combination with 1 μM Ivacaftor for 18-24 hours at 37° C. and in the presence of 20% human serum. The concentration of corrector compounds with 1 μM Ivacaftor during the 18-24 hours incubations was kept constant throughout the Ussing chamber measurement of the CFTR-mediated ISC to ensure compounds were present throughout the entire experiment.

[2] = target: CFTR-mediated chloride transport in human intestinal epithelial enteroid cells (Homo sapiens, UniProt P13569); experiment: Membrane potential dye, Enteroid Assay A; assay type: cell-based
Experimental: Base medium (ADF+++) consisted of Advanced DMEM/Ham's F12, 2 mM Glutamax, 10 mM HEPES, […] penicillin/streptomycin.
Intestinal enteroid maintenance medium (IEMM) consisted of ADF+++, 1×B27 supplement, 1×N2 supplement, 1.25 mM N-acetyl cysteine, 10 mM Nicotinamide, 50 ng/mL hEGF, 10 nM Gastrin, 1 μg/mL hR-spondin-1, 100 ng/mL hNoggin, TGF-b type 1 inhibitor A-83-01, 100 μg/mL Primocin, 10 μM P38 MAPK inhibitor SB202190.
Bath 1 Buffer consisted of 1 mM MgCl2, 160 mM NaCl, 4.5 mM KCl, 10 mM HEPES, 10 mM Glucose, 2 mM CaCl2).
Chloride Free Buffer consisted of 1 mM Magnesium Gluconate, 2 mM Calcium Gluconate, 4.5 mM Potassium Gluconate, 160 mM Sodium Gluconate, 10 mM HEPES, 10 mM Glucose.
BathI Dye Solution consisted of Bath 1 Buffer, 0.04% Pluronic F127, 20 μM Methyl Oxonol, 30 μM CaCCinh-A01, 30 μM Chicago Sky Blue.
Chloride Free Dye Solution consisted of Chloride Free Buffer, 0.04% Pluronic F127, 20 μM Methyl Oxonol, 30 μM CaCCinh-A01, 30 μM Chicago Sky Blue.
Chloride Free Dye Stimulation Solution consisted of Chloride Free Dye Solution, 10 μM forskolin, 100 μM IBMX, and 300 nM Compound III.
Human intestinal epithelial enteroid cells were obtained from the Hubrecht Institute for Developmental Biology and Stem Cell Research, Utrecht, The Netherlands and expanded in T-Flasks as previously described (Dekkers J F, Wiegerinck C L, de Jonge H R, Bronsveld I, Janssens H M, de Winter-de Groot K M, Brandsma A M, de Jong N W M, Bijvelds M J C, Scholte B J, Nieuwenhuis E E S, van den Brink S, Clevers H, van der Ent C K, Middendorp S and M Beekman J M. A functional CFTR assay using primary cystic fibrosis intestinal organoids. Nat Med. 2013 July; 19(7):939-45.).
Cells were recovered in cell recovery solution, collected by centrifugation at 650 rpm for 5 minutes at 4° C., resuspended in TrypLE and incubated for 5 minutes at 37° C. Cells were then collected by centrifugation at 650 rpm for 5 minutes at 4° C. and resuspended in IEMM containing 10 μM ROCK inhibitor (RI). The cell suspension was passed through a 40 μm cell strainer and resuspended at 1×10^6 cells/mL in IEMM containing 10 μM RI. Cells were seeded at 5000 cells/well into multi-well plates and incubated for overnight at 37° C., 95% humidity and 5% CO2 prior to assay.
Enteroid cells were incubated with test compound in IEMM for 18-24 hours at 37° C., 95% humidity and 5% C02. […] Briefly, cells were washed 5 times in Bath 1 Buffer. Bath 1 Dye Solution was added, and the cells were incubated for 25 minutes at room temperature. Following dye incubation, cells were washed 3 times in Chloride Free Dye Solution. Chloride transport was initiated by addition of Chloride Free Dye Stimulation Solution and the fluorescence signal was read for 15 minutes. […] Chloride transport was then expressed as a percentage of the chloride transport following treatment with 3 μM (S)—N-((6-aminopyridin-2-yl)sulfonyl)-6-(3-fluoro-5-isobutoxyphenyl)-2-(2,2,4-trimethylpyrrolidin-1-yl)nicotinamide, 3 μM (R)-1-(2,2-difluorobenzo[d][1,3]dioxol-5-yl)-N-(1-(2,3-dihydroxypropyl)-6-fluoro-2-(1-hydroxy-2-methylpropan-2-yl)-1H-indol-5-yl)cyclopropanecarboxamide and 300 nM acute N-[2,4-bis(1,1-dimethylethyl)-5-hydroxyphenyl]-1,4-dihydro-4-oxoquinoline-3-carboxamide triple combination control (% Activity).

[3] = amide bond, DMF

T1 sequence (P13569 with tags, fused parts or gaps DEL508-508): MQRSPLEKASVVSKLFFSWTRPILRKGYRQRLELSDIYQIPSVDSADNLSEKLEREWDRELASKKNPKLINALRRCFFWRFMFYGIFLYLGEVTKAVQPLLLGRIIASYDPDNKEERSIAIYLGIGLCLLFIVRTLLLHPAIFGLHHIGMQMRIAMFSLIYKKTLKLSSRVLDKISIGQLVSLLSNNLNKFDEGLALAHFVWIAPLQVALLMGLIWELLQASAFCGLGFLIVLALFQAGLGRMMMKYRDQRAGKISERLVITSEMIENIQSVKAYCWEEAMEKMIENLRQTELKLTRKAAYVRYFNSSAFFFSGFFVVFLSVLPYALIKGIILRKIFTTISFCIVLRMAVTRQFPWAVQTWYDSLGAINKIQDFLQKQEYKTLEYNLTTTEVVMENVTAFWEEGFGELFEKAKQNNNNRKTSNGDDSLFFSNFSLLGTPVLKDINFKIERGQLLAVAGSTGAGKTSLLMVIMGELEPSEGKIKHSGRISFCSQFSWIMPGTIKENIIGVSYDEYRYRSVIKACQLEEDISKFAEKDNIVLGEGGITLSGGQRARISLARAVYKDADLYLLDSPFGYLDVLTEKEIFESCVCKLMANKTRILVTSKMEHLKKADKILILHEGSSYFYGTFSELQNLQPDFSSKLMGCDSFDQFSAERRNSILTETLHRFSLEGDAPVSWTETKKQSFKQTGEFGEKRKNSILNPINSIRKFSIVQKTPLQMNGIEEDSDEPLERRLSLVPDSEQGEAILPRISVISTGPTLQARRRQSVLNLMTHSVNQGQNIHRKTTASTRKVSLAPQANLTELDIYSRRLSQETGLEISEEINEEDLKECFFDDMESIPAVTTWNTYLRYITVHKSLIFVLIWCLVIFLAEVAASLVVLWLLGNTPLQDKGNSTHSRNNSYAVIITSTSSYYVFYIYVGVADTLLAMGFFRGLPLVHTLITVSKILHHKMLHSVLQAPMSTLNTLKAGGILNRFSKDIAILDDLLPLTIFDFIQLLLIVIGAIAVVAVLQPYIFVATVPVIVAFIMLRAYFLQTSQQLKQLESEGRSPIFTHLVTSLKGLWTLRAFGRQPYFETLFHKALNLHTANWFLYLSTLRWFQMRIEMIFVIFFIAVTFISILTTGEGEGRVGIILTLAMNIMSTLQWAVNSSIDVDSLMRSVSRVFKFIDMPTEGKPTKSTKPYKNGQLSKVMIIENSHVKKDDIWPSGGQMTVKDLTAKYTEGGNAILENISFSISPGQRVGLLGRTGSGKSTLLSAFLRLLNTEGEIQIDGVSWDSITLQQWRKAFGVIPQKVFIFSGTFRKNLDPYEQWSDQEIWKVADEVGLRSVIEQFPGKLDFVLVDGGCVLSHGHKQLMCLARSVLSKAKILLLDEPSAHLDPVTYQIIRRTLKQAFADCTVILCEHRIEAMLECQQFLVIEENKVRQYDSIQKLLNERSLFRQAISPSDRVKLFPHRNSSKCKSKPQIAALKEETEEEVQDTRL
CFTR-mediated chloride transport in human intestinal epithelial enteroid cells, sequence (P13569 with tags, fused parts or gaps DEL508-508): as above

HBE Activity at 10 μM [1] | HBE Max. activity [1] | EC50 [1] | Compound | further results
– | +++ (+++ is >60%) | < 1000 nM | Cc1cccc(C)c1-c1cc2nc(n1)NS(=O)(=O)c1cccc(c1)C(=O)N(Cc1ncc(OC3CCC3)cn1)[C@H](CC(C)C)CC2 [Compound 59] | –
– | +++ (+++ is >60%) | < 1000 nM | Cc1cccc(C)c1-c1cc2nc(n1)NS(=O)(=O)c1cccc(c1)C(=O)N(Cc1nccc(N(C)C(C)C)n1)[C@H](CC(C)C)CC2 [Compound 60, (11S)-6-(2,6-dimethylphenyl)-11-isobutyl-12-[[4-[isopropyl(methyl)amino]pyrimidin-2-yl]methyl]-2,2-dioxo-2λ^6-thia-3,5,12,19-tetrazatricyclo[12.3.1.14,8]nonadeca-1(18),4(19),5,7,14,16-hexaen-13-one] | ring closure, yield after HPLC ([3]; from Cc1cccc(C)c1-c1cc(CC[C@@H](CC(C)C)NCc2nccc(N(C)C(C)C)n2)nc(NS(=O)(=O)c2cccc(C(=O)O)c2)n1, 13-membered ring, HATU/DIEA, 12.4 mM, 25.0 °C, 2.0 h): 49%

Second part, the molecule before the results:

Compound | HBE Activity at 10 μM [1] | HBE Max. activity [1] | EC50 [1] | further results
Cc1cccc(C)c1-c1cc2nc(n1)NS(=O)(=O)c1cccc(c1)C(=O)N([C@H]1CC3(C1)C[C@H](C(C)(C)O)C3)[C@H](CC(C)(C)C)CC2 (single isomer, unassigned) [Compound 65] | +++ (+++ is >60%) | – | – | –
Cc1cccc(C)c1-c1cc2nc(n1)NS(=O)(=O)c1cccc(c1)C(=O)N([C@H]1CC3(C1)C[C@H](C(C)(C)O)C3)[C@H](CC(C)(C)C)CC2 (single isomer, unassigned) [Compound 66] | +++ (+++ is >60%) | – | – | –
Cc1cccc(C)c1-c1cc2nc(n1)NS(=O)(=O)c1cccc(c1)C(=O)NCC1(CCCCC1)CN2 [Compound 40, 6-(2,6-Dimethylphenyl)-2,2-dioxo-spiro[2 λ6-thia-3,5,9,13,20-pentazatricyclo[13.3.1.14,8]icosa-1(19),4(20),5,7,15,17-hexaene-11,1′-cyclohexane]-14-one] | – | – | – | Ent. A Max Activity ([2]; % of chloride transport of triple combination control: 3 μM (S)-N-((6-aminopyridin-2-yl)sulfonyl)-6-(3-fluoro-5-isobutoxyphenyl)-2-(2,2,4-trimethylpyrrolidin-1-yl)nicotinamide, 3 μM tezacaftor, 300 nM acute ivacaftor): + (+ is <30%); EC50 ([2]; enteroid cells, 18-24 hours incubation, acute 10 μM forskolin and 300 nM ivacaftor, read-out: Ent. A EC50): 1000 to 3000 nM; ring closure, yield after HPLC ([3]; from Cc1cccc(C)c1-c1cc(NCC2(CN)CCCCC2)nc(NS(=O)(=O)c2cccc(C(=O)O)c2)n1, 14-membered ring, HATU/Et3N, 58.9 mM, 0.5 h): 33%
Cc1cccc(C)c1-c1cc2nc(n1)NS(=O)(=O)c1cccc(c1)C(=O)N(Cc1ncc(OC(C)C)cn1)[C@H](CC(C)C)CC2 [Compound 58] | – | +++ (+++ is >60%) | < 1000 nM | –
Cc1cccc(C)c1-c1cc2nc(n1)NS(=O)(=O)c1cccc(c1)C(=O)N(Cc1ncc(OC(C)C)cn1)[C@H](CC(C)(C)C)CC2 [Compound 62, (11S)-6-(2,6-Dimethylphenyl)-11-(2,2-dimethylpropyl)-12-[(5-isopropoxypyrimidin-2-yl)methyl]-2,2-dioxo-2 λ6-thia-3,5,12,19-tetrazatricyclo[12.3.1.14,8]nonadeca-1(18),4(19),5,7,14,16-hexaen-13-one] | – | +++ (+++ is >60%) | < 1000 nM | ring closure, yield after HPLC ([3]; from Cc1cccc(C)c1-c1cc(CC[C@@H](CC(C)(C)C)NCc2ncc(OC(C)C)cn2)nc(NS(=O)(=O)c2cccc(C(=O)O)c2)n1, 13-membered ring, CDMT/NMM, 47.5 mM, 18.0 h): 79%
Cc1cccc(C)c1-c1cc2nc(n1)NS(=O)(=O)c1cccc(c1)C(=O)N(C1CC3(CC3)C1)[C@H](CC(C)(C)C)CC2 [Compound 63] | +++ (+++ is >60%) | – | – | –
Cc1cccc(C)c1-c1cc2nc(n1)NS(=O)(=O)c1cccc(c1)C(=O)N(Cc1ncc(OC3CCC3)cn1)[C@H](CC(C)(C)C)CC2 [Compound 64, (11S)-12-[[5-(Cyclobutoxy)pyrimidin-2-yl]methyl]-6-(2,6-dimethylphenyl)-11-(2,2-dimethylpropyl)-2,2-dioxo-2λ6-thia-3,5,12,19-tetrazatricyclo[12.3.1.14,8]nonadeca-1(18),4(19),5,7,14,16-hexaen-13-one] | +++ (+++ is >60%) | – | – | ring closure, yield after HPLC ([3]; from Cc1cccc(C)c1-c1cc(CC[C@@H](CC(C)(C)C)NCc2ncc(OC3CCC3)cn2)nc(NS(=O)(=O)c2cccc(C(=O)O)c2)n1, 13-membered ring, CDMT/NMM, 44.1 mM, 17.0 h): 73%

— patent US12612416B2, “Modulators of cystic fibrosis transmembrane conductance regulator” (VERTEX PHARMACEUTICALS INCORPORATED, priority 2020, dated 2026)
